Experimental data reported in article PMC3527569, “Anti-Inflammatory and Vasoprotective Activity of a Retroviral-Derived Peptide, Homologous to Human Endogenous Retroviruses: Endothelial Cell Effects” (PLoS ONE, 2012).
Where a SMILES comes first, the peptide text is derived from it. Bridges are numbered along the chain shown (N, C = ends). Roman numbers before positions name the chains, in order.

What was measured:
[1] = reason why binding studies were performed at 37°C
carrageenan-induced DIC = assay: Mouse carrageenan-induced DIC model, lethality; format: in vivo, mouse (CD-1)
Description: Groups of 10 male CD-1 mice were injected i.p. with 0.25 ml of either vehicle (PBS) or peptide in vehicle at varying times prior to the i.p. injection of 1.0 ml of carrageenan (0.45% [w/v] in PBS; Sigma). In experiments where serum cytokine levels were determined, groups of 5 mice were euthanized at 1-, 2-, 4-, 8-, and 24-h post injection of carrageenan, blood collected by cardiac puncture into heparinized syringes, and the resultant plasma stored at −80°C until assayed by ELISA. […] At 1-, 2-, 4-, and 24-h post injection of carrageenan, five mice from each group were euthanized and heparinized blood samples collected from the heart using heparinized syringes for subsequent determinations of WBC (white blood cell) counts, RBC (red blood cell) counts, or PLT (platelet) counts.

systolic blood pressure = assay: SHR rat hypertension model (tail cuff); format: in vivo
Description: As part of a general pharmacological screen, MN10021 was evaluated in a rat model of hypertension by MDS-PanLabs (Bothell, WA). […] Blood pressure measurements were made by tail cuff at 1, 2, and 4 h post administration of test compounds. A decrease of ≥10% of the baseline systolic blood pressure is considered significant in this assay.

[2] = system: inflammatory accumulation of monocytes/macrophages; assay: Mouse NaIO4-induced inflammatory peritonitis model; format: in vivo, mouse (CD-1); conditions: doses as high as 40 µg (10 nmol)
Description: Effects of test compounds on the inflammatory accumulation of monocytes/macrophages or neutrophils in vivo were determined using a mouse peritonitis model. Briefly, groups of five 6–8 week old CD-1 outbred mice (Charles River; Raleigh, NC) were injected intraperitoneally (i.p.) with 1.0 ml of a sterile inflammatory stimulus (NaIO4; 5 mM in sterile isotonic saline; Sigma; St. Louis, MO). This procedure results in a dramatic accumulation of neutrophils in the peritoneal cavity which peaks at 6–8 h post injection, followed by an accumulation of monocytes/macrophages which peaks at 48–72 h post injection. Mice were euthanized by CO2 asphyxiation at either 6 h (for neutrophils) or 48 h (for monocyte/macrophages), the peritoneal cavities lavaged with two 10-ml washes of heparinized (10 u/ml; Sigma; St. Louis, MO) HBSS containing 0.1% (w/v) BSA, the washes pooled, and total and differential cells counts determined for each pooled cell suspension. Each test material was evaluated in a group of five mice, each of which was injected subcutaneously in the thigh with 0.2 ml of test material in HBSS 24 h prior to the i.p. injection of the inflammatory stimulus.

[3] = 100 mg/kg orally (gavage), groups of 3 SHR rats, tail cuff, vs 0 h value

Compound | solubility at lower temperatures [1] | protection in lethal model of carrageenan-induced DIC (carrageenan-induced DIC; 73 nmol) | mice protected from lethal carrageenan (carrageenan-induced DIC; 30 µg (7 nmol) i.p. 18 h prior to carrageenan, groups of 10 CD-1 mice) | survival time after carrageenan (carrageenan-induced DIC; 1 mg (245 nmol) i.p. before i.p. carrageenan, 120 h longest time observed) | decreases in blood pressure at the three time points (1, 2, 4 h) (systolic blood pressure; 30 mg/kg orally, data not shown) | decrease in blood pressure at 1 h (systolic blood pressure; [3]) [%] | decrease in blood pressure at 2 h (systolic blood pressure; [3]) [%] | decrease in blood pressure at 4 h (systolic blood pressure; [3]) [%] | lowering of blood pressure within 1 h (systolic blood pressure; orally-administered (abstract)) | anti-inflammatory activity in peritonitis model [2]
CC(C)C[C@H](NC(=O)CNC(=O)CNC(=O)[C@H](CCC(=O)O)NC(=O)[C@H](CCCCN)NC(=O)[C@H](CC(C)C)NC(=O)[C@H](Cc1ccccc1)NC(=O)[C@H](CC(C)C)NC(=O)[C@H](CC(C)C)NC(=O)[C@H](CC(=O)O)NC(=O)[C@H](CC(C)C)NC(=O)CNC(=O)[C@H](CCCNC(=N)N)NC(=O)[C@H](CCCNC(=N)N)NC(=O)[C@H](CC(N)=O)NC(=O)[C@H](CCC(N)=O)NC(=O)[C@@H](N)CC(C)C)C(=O)N[C@@H](CSSC[C@H](NC(=O)[C@H](CC(C)C)NC(=O)CNC(=O)CNC(=O)[C@H](CCC(=O)O)NC(=O)[C@H](CCCCN)NC(=O)[C@H](CC(C)C)NC(=O)[C@H](Cc1ccccc1)NC(=O)[C@H](CC(C)C)NC(=O)[C@H](CC(C)C)NC(=O)[C@H](CC(=O)O)NC(=O)[C@H](CC(C)C)NC(=O)CNC(=O)[C@H](CCCNC(=N)N)NC(=O)[C@H](CCCNC(=N)N)NC(=O)[C@H](CC(N)=O)NC(=O)[C@H](CCC(N)=O)NC(=O)[C@@H](N)CC(C)C)C(=O)O)C(=O)O [MN10021] (I: H-LQNRRGLDLLFLKEGGLC-OH / II: H-LQNRRGLDLLFLKEGGLC-OH; disulfide I:18-II:18) | insolubility | completely protects | approximately 50% | at least 120 h | 3–4% | 12 | 15 | 13 | 10–15% | 
H-LGGEKLFLLDGRNQLC-OH (disulfide (positions not given here)) [MN20050] |  |  |  |  |  |  |  |  |  | no anti-inflammatory activity
